Here are results for two compounds from patent publication US4035381A, “Antibacterial agents” (priority 1976, dated 1977).

One data set deals with Str. pneumoniae A9585. Briefly: Antibiotic activity in nutrient broth (MIC), Str. pneumoniae. Format: cell-based. As to conditions: Streptococcus pneumoniae, 45% AAB + 5% serum + 50% broth, 10^-3 dilution of overnight culture, Ex. 1/Ex. 2 figures recalculated on penicillin content. The source says:
(§1) ANTIBIOTIC ACTIVITY IN NUTRIENT BROTH
(§2) *45% AAB + 5% serum + 50% broth
(§3) **Dilution of overnight broth culture
(§4) +These figures were […] on the basis that there was only 60.61%
(§5) amoxicillin in the sample; in other words, the numerical values were
(§6) lowered, i.e. improved.
(§7) ----//These figures were recalculated on the basis that there was only

For another data set, the system named is Str. pyogenes A9604. Briefly: Antibiotic activity in nutrient broth (MIC), Str. pyogenes. Format: cell-based. As to conditions: Streptococcus pyogenes, 45% AAB + 5% serum + 50% broth, 10^-3 dilution of overnight culture, Ex. 1/Ex. 2 figures recalculated on penicillin content.
Text: as §1, §2, §3, §4, §5, §6, §7

A further data set deals with S. aureus Smith A9537. The data set is described as follows: Antibiotic activity in nutrient broth (MIC), S. aureus Smith. As to conditions: Staphylococcus aureus, 10^-4 dilution, Ex. 1/Ex. 2 figures recalculated on penicillin content. Format: cell-based.
Text: as §1, §3, §4, §5, §6, §7

In the next data set the test system is S. aureus bx 1633 A9606. Briefly: Antibiotic activity in nutrient broth (MIC), S. aureus bx 1633. As to conditions: Ex. 1/Ex. 2 figures recalculated on penicillin content. Format: cell-based.
The test system of data set [1] is S. aureus Meth.-res. A15097. The data set is described as follows: Antibiotic activity in nutrient broth (MIC), S. aureus Meth.-res. Format: cell-based. As to conditions: Staphylococcus aureus.
Another data set has as its system Sal. enteritidis A9531. The data set is described as follows: Antibiotic activity in nutrient broth (MIC), Sal. enteritidis. Format: cell-based. To be noted: Salmonella enterica, 10^-4 dilution, Ex. 1/Ex. 2 figures recalculated on penicillin content.
Text: as §1, §3, §4, §5, §6, §7

A further data set relates to E. coli Juhl A15119. The data set is described as follows: Antibiotic activity in nutrient broth (MIC), E. coli Juhl. Format: cell-based. As to conditions: Escherichia coli, JUHLA15119, 10^-4 dilution, Ex. 1/Ex. 2 figures recalculated on penicillin content.
Text: as §1, §3, §4, §5, §6, §7

The test system of a further data set is E. coli A9675. Briefly: Antibiotic activity in nutrient broth (MIC), E. coli A9675. Format: cell-based. To be noted: Escherichia coli, 10^-4 dilution, Ex. 1/Ex. 2 figures recalculated on penicillin content.
Text: as §1, §3, §4, §5, §6, §7

The next data set deals with K. pneumoniae A9977. The data set is described as follows: Antibiotic activity in nutrient broth (MIC), K. pneumoniae A9977. Format: cell-based. As to conditions: Klebsiella pneumoniae, 10^-4 dilution, Ex. 1/Ex. 2 figures recalculated on penicillin content.
Text: as §1, §3, §4, §5, §6, §7

The next data set has as its system K. pneumoniae A15130. The data set is described as follows: Antibiotic activity in nutrient broth (MIC), K. pneumoniae A15130. As to conditions: Klebsiella pneumoniae. Format: cell-based.
In a further data set the test system is Pr. mirabilis A9900. The data set is described as follows: Antibiotic activity in nutrient broth (MIC), Pr. mirabilis. Format: cell-based. As to conditions: Proteus mirabilis, 10^-4 dilution, Ex. 1/Ex. 2 figures recalculated on penicillin content.
Text: as §1, §3, §4, §5, §6, §7

The subject of the next data set is Pr. morganii A15153. The data set is described as follows: Antibiotic activity in nutrient broth (MIC), Pr. morganii. Format: cell-based. To be noted: Morganella morganii, 10^-4 dilution, Ex. 1/Ex. 2 figures recalculated on penicillin content.
For a further data set, the system named is Ps. aeruginosa A9843A. Briefly: Antibiotic activity in nutrient broth (MIC), Ps. aeruginosa. Format: cell-based. To be noted: Pseudomonas aeruginosa.
For a further data set, the system named is Ser. marcescens A20019. The data set is described as follows: Antibiotic activity in nutrient broth (MIC), Ser. marcescens. As to conditions: Serratia marcescens, 10^-4 dilution, Ex. 1/Ex. 2 figures recalculated on penicillin content. Format: cell-based.
Text: as §1, §3, §4, §5, §6, §7

A further data set has as its system Ent. cloacae A9656. Briefly: Antibiotic activity in nutrient broth (MIC), Ent. cloacae A9656. Format: cell-based. As to conditions: Enterobacter cloacae, 10^-4 dilution, Ex. 1/Ex. 2 figures recalculated on penicillin content.
For another data set, the system named is Ent. cloacae A9657. Briefly: Antibiotic activity in nutrient broth (MIC), Ent. cloacae A9657. Format: cell-based. As to conditions: Enterobacter cloacae, 10^-4 dilution, Ex. 1/Ex. 2 figures recalculated on penicillin content.
Another data set has as its system Ent. cloacae A9659. Briefly: Antibiotic activity in nutrient broth (MIC), Ent. cloacae A9659. Format: cell-based. As to conditions: Enterobacter cloacae, 10^-4 dilution, Ex. 1/Ex. 2 figures recalculated on penicillin content.
A short description of data set [2]: Stability of reconstituted aqueous solution. Format: physicochemical. As to conditions: 10 to 20 mg./ml. of activity.
Data set [3] is described as follows: Hydrolysis to parent penicillin (paper strip and liquid chromatography). Format: in vitro ADME. To be noted: 0.2 mg./ml.; pH 6.5-7.0 buffer or serum; room temperature and 37° C.
A further data set can be described thus: Bioassay. To be noted: theory 730 (Ex. 1) / 596 (Ex. 2) mcg./mg.
Data set [4] is described as follows: Oral and intramuscular rat blood levels. Format: in vivo.
The nature of data set [5]: In vitro antibacterial spectrum / activity. As to conditions: vs amoxicillin (Ex. 1) or ampicillin (Ex. 2). Format: cell-based.
A short description of a further data set: Hygroscopicity. To be noted: solid product. Format: physicochemical.
A short description of data set [6]: Mouse blood levels after oral administration. As to conditions: 100 mg./kg., tested twice, average of 6 mice each.
Data set [7] can be described thus: Mouse blood levels after intramuscular administration. To be noted: 10 mg./kg., average of six animals, unit assumed.
The conditions of data set [8]: room temperature, reconstituted at 250 mg./ml.; cited from earlier work.
The conditions of data set [9]: prior-art salt; cited from earlier work.
For data set [10] the following is noted: in vivo, iv; cited from earlier work.

Several values for one entry are separate records, joined by “and”; a condition that tells them apart may be missing. Equal values may be shown once. Where a name gives a salt, the structure may show the parent alone. Read-outs that look alike come from different tables or passages of the source. Some results are limits rather than exact numbers.

Take `CC1(C)S[C@@H]2[C@H](N3C(=O)[C@@H](c4ccc(O)cc4)NC3c3ccc(S(=O)(=O)O)o3)C(=O)N2[C@H]1C(=O)O` (mixture of isomers) [Example 1, Disodium 6-[D(-)2-(±)5-Sulfo-2-furyl-5-oxo-4-p-hydroxyphenyl-1-imidazolidinyl]penicillanate]: the MIC with Str. pneumoniae A9585 is 0.0005 µg/mL; in the data set on Str. pyogenes A9604, 0.0005 µg/mL; with S. aureus Smith A9537 (SMITHA9537, +50% serum), 0.13 µg/mL; with S. aureus Smith A9537 (SMITHA9537, nutrient broth, no serum) it was 0.06 µg/mL; with S. aureus bx 1633 A9606 (10^-2 dilution), greater than 125 µg/mL; in the data set on S. aureus bx 1633 A9606 (Staphylococcus aureus, BX1633A9606, 10^-3 dilution, read-out: MIC), greater than 125 µg/mL. For the same compound, the MIC in data set [1] is greater than 125 µg/mL; in the data set on Sal. enteritidis A9531 it was 0.13 µg/mL; in the data set with E. coli Juhl A15119, 1 µg/mL; in the data set with E. coli A9675, 16 µg/mL; with K. pneumoniae A9977, 0.13 µg/mL; in the data set with K. pneumoniae A15130 it was 125 µg/mL. In addition, the MIC with Pr. mirabilis A9900 is 0.25 µg/mL; in the data set on Pr. morganii A15153, greater than 125 µg/mL; against Ps. aeruginosa A9843A, greater than 125 µg/mL; in the data set on Ser. marcescens A20019 it was 32 µg/mL; with Ent. cloacae A9656, greater than 125 µg/mL; in the data set with Ent. cloacae A9657 it was 63 µg/mL. In the data set on Ent. cloacae A9659, the minimal inhibitory concentration (MIC) is 63 µg/mL. Further, the “stable at room temperature (diluted solution)” value in [2] is “at least 24 hours”. In data set [3], the “hydrolysis in water to parent penicillin” value is reported as “rapidly hydrolyzes in water to amoxicillin”. This compound had a Bioassay in “Bioassay” of 696 µg/mg. Moreover, in [4] (intramuscular), the “Intramuscular rat blood levels compared with parent penicillin” value is listed as “substantially equal to those of amoxicillin”. The “Oral rat blood levels compared with parent penicillin” value in data set [4] (oral) was “substantially equal to those of amoxicillin”. For the same compound, the “in vitro antibacterial spectrum compared with parent penicillin” value in data set [5] is listed as “substantially equivalent to that of amoxicillin”. Further, the hygroscopicity result in the data set “Hygroscopicity” is listed as “nonhygroscopic”. The Blood level is 6.3 and 9.5 in [6] (0.5 hours, listed as Ex. 1, in µg/mL (unit assumed)); 7.2 and 10.4 in data set [6] (1 hour, listed as Ex. 1, in µg/mL (unit assumed)); 3.9 and 4.9 in data set [6] (2 hours, listed as Ex. 1, in µg/mL (unit assumed)); 1.1 in [6] (3.5 hours, in µg/mL (unit assumed)). The Mouse blood level was determined as 7.3 µg/mL in [7] (0.25 hours), 5.4 µg/mL in data set [7] (0.5 hours), 2.1 µg/mL in data set [7] (1 hour) and 1.1 µg/mL in data set [7] (1.5 hours).
Turning to `CC1(C)S[C@@H]2[C@H](NC(=O)[C@H](N)c3ccccc3)C(=O)N2[C@H]1C(=O)O` [sodium salt of ampicillin], the “shelf-life of aqueous solution” value in [8] was “about one”. The hygroscopicity entry in data set [9] is recorded as “hygroscopic”. In addition, the irritation on injection result in data set [10] is on record as “somewhat irritating on injection”.

The MIC is the lowest concentration that inhibits growth of the organism.
